Results taken from US20230381170A1, “METHOD FOR TREATING ALS/FTD THROUGH DEGRADATION OF RNA REPEAT EXPANSION” (University of Florida Research Foundation, Incorporated, priority 2020, published 2023).
“Also recorded” adds a separate entry of the source.

Columns and labels:
Assay type in all cases: cell-based, human
Poly(GP) = Poly(GP) by immunoassay in patient-derived iPSCs; details: for Poly(GP) levels: iPSCs from c9ALS patients
Procedure: (§1) iPSCs were treated for 4 days in Matrigel (356234, Corning) coated plates with mTeSR™1 feeder-free medium ([…] Technologies; Catalog #85850). Cells were treated in 6-well plates on day 1 and 3 with compounds diluted in 0.1% final DMSO.
Measuring Poly(GP) Levels by Electrochemiluminescence. LCLs were seeded in T-25 flash at 400,000 cells/mL in 5 mL of growth medium. After overnight incubation, the cells were treated with compound or ASO for 4 days at 37° C. After the treatment period, the cells were pelleted, and total protein was extracted by incubating with CoIP2 Buffer (50 mM Tris-HCL, pH 7.4, 300 mM NaCl, 5 mM EDTA, 1% (v/v) Triton-X 100, 2% (w/v) sodium dodecyl sulfate, and 0.01% (v/v) protease and phosphatase inhibitors) on ice for 5 min and then sonication (3 s intervals at 35% power for ˜40 s). Detergent was then removed using Pierce™ Detergent Removal Spin Columns following manufacturer's protocol. Protein concentration was measured by Pierce™ BCA Protein Assay Kit.
Levels of poly(GP) were measured using Meso Scale Discovery MSD Gold 96-well Streptavidin SECTOR plates. Both capture and detection antibodies were generated using an anti-poly(GP) antibody kindly provided by the Target ALS Foundation. To serve as the capture antibody, the poly(GP) antibody was conjugated to biotin using EZ-Link™ Sulfo-NHS-LC-Biotin (Thermo Fisher) as per the manufacturer's protocol. To serve as the detection antibody, the poly(GP) antibody was sulfo-tagged using MSD GOLD SULFO-TAG NHS-Ester (Meso Scale Discovery) as per the manufacturer's protocol. The conjugated antibodies were desalted with 40K Zeba™ Spin Desalting Columns (Thermo Fisher Scientific), and their concentrations were determined by Pierce™ BCA Protein Assay Kit.
Briefly, the plates were incubated with 2 μg/ml of anti-poly(GP)-biotin antibody at 4° C. overnight. […] After washing with 150 μL of 1×TBST three times, 1×MSD GOLD Read Buffer was added to each well, and electrochemiluminescence was measured using a SECTOR Imager (MSD). […]

WT C9ORF72 protein = assay: C9ORF72 expression by Western blotting; details: Western blot, relative to β-actin
Procedure: Measuring C9ORF72 Expression Level by Western Blotting. Samples analyzed by Western blot were prepared as described in “Measuring poly(GP) Levels by Electrochemiluminescence”. Approximately 20 μg of total protein was separated on a 10% SDS-polyacrylamide gel, and then transferred to a PVDF membrane. The membrane was washed with 1×TBS and then blocked in 5% milk in 1×TBST for 1 h at room temperature. After washing with 1×TBST, C9orf72 antibody (GeneTex, GTX119776; 1:3000 dilution) was added in 1×TBST containing 5% milk overnight at 4° C. […] The membrane was washed with 1×TBST, and protein expression was quantified using SuperSignal West Pico Chemiluminescent Substrate (Pierce Biotechnology) per the manufacturer's protocol.
To quantify β-actin expression, the membrane was stripped using 1× Stripping Buffer (200 mM glycine, pH 2.2 and 0.1% SDS) followed by washing in 1×TBST. […] The membrane was washed with 1×TBST and incubated with 1:10,000 anti-rabbit IgG horseradish-peroxidase secondary antibody conjugate (Cell Signaling Technology) in 1×TBST containing 5% (w/v) milk for 1 h at room temperature. β-actin protein expression was quantified using SuperSignal West Pico Chemiluminescent Substrate (Pierce Biotechnology) per the manufacturer's protocol. […].

[1] = tested on: C9orf72 intron 1 harboring r(G4C2)exp; assay: C9orf72 intron 1 RT-qPCR in patient-derived iPSCs
Procedure: as §1
Measuring Levels of C9orf72 and C9orf72 Variants by RT-qPCR. LCLs were seeded in 6-well plate (˜10^6 cells in 2 mL of growth medium) and incubated overnight at 37° C. Cells were then treated with various concentrations of compound for 24 h or with G4C2-ASO and Control-ASO (100 nM), delivered by transfection with Lipofectamine RNAiMax. RNA was extracted as described above and the expression of C9orf72 variants was determined by RT-qPCR. For iPSC and iPSC-derived motor neuron cell line, the cells were seeded into Matrigel-coated 6-well plate to ˜60% confluence before treated with 3 μM C9orf72-ASO or Control-ASO and various concentrations of compound for 1 to 2 weeks. For compound treatment well, medium change was performed with fresh compound every 3-4 days. RNA was extracted as described above and the expression of C9orf72 variants was determined by RT-qPCR.

Row | SMILES | Poly(GP) levels (Poly(GP)) | WT C9ORF72 protein levels (WT C9ORF72 protein) | C9orf72 intron 1 levels ([1]; patient-derived iPSCs) | potency and duration of activity for reducing Poly(GP) abundance compared to parent compound 3 (Poly(GP)) | reduction of r(G4C2)exp-containing intron 1 levels ([1]; 50 nM) [%] | reduction of r(G4C2)exp-containing intron 1 levels ([1]; 500 nM) [%]
1 | Cc1c2ccncc2c(C)c2c1[nH]c1ccc(OCCOCCOCCNCCOCCOCCOc3ccc4[nH]c5c(C)c6ccncc6c(C)c5c4c3)cc12 [Compound 3] | reduced Poly(GP) levels dose-dependently | no effect | no effect | – | – | –
2 | CCOC(=O)C1=C(Nc2ccccc2)S/C(=C\c2ccc(OCCOCCOCCOCCNC(=O)CCC(=O)N(CCOCCOCCOc3ccc4[nH]c5c(C)c6ccncc6c(C)c5c4c3)CCOCCOCCOc3ccc4[nH]c5c(C)c6ccncc6c(C)c5c4c3)c(O)c2)C1=O [Compound 7] | significant reduction | unchanged | – | significant increase in potency and a prolonged period of activity; also recorded: significant (P<0.05) increase in potency and a prolonged duration of activity | 45±11 | 64±10
